In patent US20260053931A1, “MDM2 TARGETING PROTACS” (THE WISTAR INSTITUTE OF ANATOMY AND BIOLOGY, priority 2023, published 2026):
Entries after “also recorded” stand apart in the source; their conditions may differ. Read-outs that look alike come from different tables or passages of the source.

Assays:
[1] = target: T1, Mdm2 (Homo sapiens, UniProt Q00987); assay: Mdm2 HTRF binding assay (Table 2)
Text: An HTRF binding assay was developed using a biotinylated peptide containing the Mdm2-binding domain of p53 and a recombinant GST-tagged N-terminus of Mdm2 containing the p53-binding domain. HTRF is a proximity-based fluorescence energy transfer (FRET) assay that takes advantage of the unique time-resolved fluorescence of the lanthanide chelates, such as terbium and europium. HTRF IC50 values are provided for all key compounds (FIG. 13C, FIG. 19B, and Table 2).
Target sequence in this assay (Q00987 26-109 limits assumed): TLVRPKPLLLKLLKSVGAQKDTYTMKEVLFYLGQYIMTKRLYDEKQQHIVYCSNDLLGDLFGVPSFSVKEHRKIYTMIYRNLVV

[2] = system: mut p53 MDA-MD-231 cells; assay: Live cell count with CellTag700 Stain in ICW format; details: after 24 h and 48 h treatment
Protocol: Cells are seeded in 96 half area well plates (black clear bottom) and cultured overnight. Then they are treated with compounds, fixed with 4% paraformaldehyde for 20 minutes, and permeabilized in 0.1% Triton. They are then treated with the primary antibody and secondary antibody conjugated to IRDye800CW or treated with CellTag 700 Stain. The plates are then scanned on the OdysseyCLX and the data processed to provide a dose response curve.
Since genetic deletion of Mdm2 induces p73 and induces apoptosis in p53 mutant and deficient cancer cells, YX-02-030 and YX-02-228 were evaluated for their effect on cell viability. First, the CellTag700 Stain was utilized to count the number of live cells in the ICW format.

[3] = Mouse pharmacokinetic study, intraperitoneal; format: in vivo; details: single 10 mg/kg intraperitoneal dose, 0.25-6 h
Protocol: To translate cell-based activity to in vivo efficacy, the Mdm2 PROTACs were evaluated for metabolic stability and plasma compound levels after IP injection in the mouse. Mouse liver microsome stability was obtained for lead compounds (Alliance Pharma, Inc; Malvern PA) as a predictive measure for suitable exposure in a mouse pharmacokinetic study. In brief, test compounds (0.5 μM) are incubated with liver microsomes ([…]) and an NADPH-regenerating system (cofactor solution) and samples are taken at various timepoints, quenched with an acetonitrile solution containing an internal standard, then analyzed by LC-MS/MS. […] Mouse pharmacokinetic studies for YX-02-030 and YX-02-288 were completed. Mouse plasma levels were evaluated following intraperitoneal (10 mg/kg) administration. Plasma was collected at timepoints 0.25 h, 0.5 h, 1 h, 2 h, 4 h and 6 h after Mdm2 PROTAC injection. Plasma was deproteinized and analyzed for compound using LC-MS/MS methods. Three mice were used for each time point and one control animal (Alliance Pharma Inc, Malvern PA).

[4] = In vivo tolerability, nude mice; parameters: species or system mouse; details: YX-02-030 50 mg/kg IP, YX-02-228 30 mg/kg IP, once daily
Protocol: FIGS. 25A & 25B show the in vivo tolerability tests conducted with the 2 lead Mdm2 PROTACs to evaluate tolerated doses and effects on normal tissues. Nude mice were treated with Mdm2 PROTACs, YX-02-030 (50 mg/kg; IP) and YX-02-228 (30 mg/kg; IP) once daily for 14 days. […] Fresh, surgically-resected tumor from five TNBC patients was obtained, and 80% were from Black/African American patients.
In vivo tolerability tests were conducted with the 2 lead Mdm2 PROTACs to evaluate tolerated doses and effects on normal tissues. Nude mice were treated with Mdm2 PROTACs, YX-02-030 (50 mg/kg; IP) and YX-02-228 (30 mg/kg; IP) once daily for 8 days.

[5] = system: SU-DHL-6; assay: Cell death of other cancer cell lines: SU-DHL-6; format: cell-based; details: Homo sapiens; SU-DHL-6, Diffuse large B cell lymphoma
Protocol: (§1) The PROTACs prepared herein were tested for their use in other cancer cell lines to determine activity in multiple different types of cancer.

[6] = system: SU-DHL-8; assay: Cell death of other cancer cell lines: SU-DHL-8; format: cell-based; details: Homo sapiens; SU-DHL-8, Diffuse large B cell lymphoma
Protocol: as §1

[7] = system: Hut-78; assay: Cell death of other cancer cell lines: Hut-78; format: cell-based; details: Homo sapiens, HuT78; Hut-78, T cell lymphoma
Protocol: as §1

[8] = system: SEM cells; assay: Cell death of other cancer cell lines: SEM; format: cell-based; details: Homo sapiens, B-ALL
Protocol: as §1

[9] = system: MOLT1; assay: Cell death of other cancer cell lines: MOLT1; format: cell-based; details: Homo sapiens; MOLT1, T-ALL
Protocol: as §1

[10] = system: SUP-T1; assay: Cell death of other cancer cell lines: SUP-T1; format: cell-based; details: Homo sapiens; SUP-T1, T-ALL
Protocol: as §1

[11] = system: PC9; assay: Cell death of other cancer cell lines: PC9; format: cell-based; details: Homo sapiens, PC-9; PC9, Lung adenocarcinoma
Protocol: as §1

[12] = system: SKOV3; assay: Cell death of other cancer cell lines: SKOV3; format: cell-based; details: Homo sapiens, SK-OV-3; SKOV3, Ovarian
Protocol: as §1

[13] = system: KPCA; assay: Cell death of other cancer cell lines: KPCA; format: cell-based; details: Ovarian, Mouse
Protocol: as §1

[14] = target: T1, Mdm2; assay: In-Cell Western, mut p53 MDA-MB-231 cell line; format: cell-based; parameters: endogenous in cells; host or cells: MCF7 (A8); MDA-MB-231 (A9); details: mutant p53 MDA-MB-231
Protocol: Cells were seeded at decreasing cell number from 15K cells to 2K cells. The Mdm2 primary antibody was tested at 1:200 and 1:300 dilution. The secondary antibody conjugated to IRDye800CW was used with 1:800 dilution, and CellTag 700 Stain was used at 1:1000 dilution as manufacture recommended. The linearity of cell number versus signal was generated with Prism. The signal over background ratio was also calculated.
The potential PROTACs were evaluated in the wt p53 MCF7 cell line and in the mut p53 MDA-MB-231 cell line. Importantly these were compared to MD-224, which was recently reported to potently degrade Mdm2 in RS4; 11 leukemia cells (Li et al., 2019). Assay linearity was performed confirming a strong 4-fold signal to noise in the assay. A series of bi-functional molecules were then treated and evaluated for protein level in the assay over time from 2 h-48 h. […] In this wt p53 cancer cell line the stabilization of p53 (FIG. 15B), and subsequent p53-mediated transcriptional upregulation of Mdm2 make it difficult to observe degradation. […] These compounds were evaluated in the mutant p53 cancer cells. […] In this cell line, it takes approximately 16-24 h to detect the degradation. […] The difference in the molecules is that MD-224 utilizes a CRBN recruiting ligand.
Target sequence in this assay (Q00987 whole entry, the tested form may be a part): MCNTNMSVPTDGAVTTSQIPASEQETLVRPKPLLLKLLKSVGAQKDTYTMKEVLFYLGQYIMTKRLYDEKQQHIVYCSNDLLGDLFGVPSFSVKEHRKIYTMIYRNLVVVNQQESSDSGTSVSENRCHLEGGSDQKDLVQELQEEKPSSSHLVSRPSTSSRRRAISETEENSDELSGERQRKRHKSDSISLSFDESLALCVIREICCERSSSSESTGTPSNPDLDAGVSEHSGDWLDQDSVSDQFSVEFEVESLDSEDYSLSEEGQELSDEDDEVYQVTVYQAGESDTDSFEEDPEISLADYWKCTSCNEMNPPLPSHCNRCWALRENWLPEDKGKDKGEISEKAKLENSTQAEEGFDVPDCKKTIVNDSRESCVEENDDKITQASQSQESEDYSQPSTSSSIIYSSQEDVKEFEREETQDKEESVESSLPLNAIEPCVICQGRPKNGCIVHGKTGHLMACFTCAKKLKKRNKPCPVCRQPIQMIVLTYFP

Compound	IC50 [1] [µM]	cytotoxic effect, number of live cells [2]	in vivo plasma levels ([3]; 10 mg/kg)	blood counts [4]	body weight [4]	clinical observations for spleen and bone marrow [4]	IC50 [5] [µM]	IC50 [6] [µM]	IC50 [7] [µM]	IC50 [8] [µM]	IC50 [9] [µM]	IC50 [10] [µM]	IC50 [11] [µM]	IC50 [12] [µM]	IC50 [13] [µM]	Mdm2 degradation [14]	IC50 ([1]; read-out: Mdm2 HTRF IC50) [µM]	in vivo plasma levels [3]
CCOc1cc(C(C)(C)C)ccc1C1=N[C@](C)(c2ccc(Cl)cc2)[C@](C)(c2ccc(Cl)cc2)N1C(=O)N1CCN(CC(=O)NCCOCCOCCOCC(=O)N[C@H](C(=O)N2C[C@H](O)C[C@H]2C(=O)NCc2ccc(-c3scnc3C)cc2)C(C)(C)C)CC1 (racemic) [YX-02-030]	0.014	potent cytotoxic effects	prolonged in vivo plasma exposure; also recorded: plasma levels stable over 6 hours	no significant change	no significant change in body weight	no adverse clinical observations	3.6	1.9	9	3.2	2.6	5.7	4.5	5.7	2.9	degrade Mdm2	–	–
CCOc1cc(C(C)(C)C)ccc1C1=N[C@](C)(c2ccc(Cl)cc2)[C@](C)(c2ccc(Cl)cc2)N1C(=O)N1CCN(CC(=O)NCCCNC(=O)COc2ccc3c(c2)CN(C(=O)[C@H](NC(=O)[C@@H](C)NC)C(C)(C)C)[C@@H](C(=O)N[C@H]2CCCc4ccccc42)C3)CC1 [YX-02-228, (R)-7-(2-((3-(2-(4-((4R,5S)-2-(4-(tert-butyl)-2-ethoxyphenyl)-4,5-bis(4-chlorophenyl)-4,5-dimethyl-4,5-dihydro-1H-imidazole-1-carbonyl)piperazin-1-yl)acetamido)propyl)amino)-2-oxoethoxy)-2-((R)-3,3-dimethyl-2-((R)-2-(methylamino)propanamido)butanoyl)-N-((S)-1,2,3,4-tetrahydronaphthalen-1-yl)-1,2,3,4-tetrahydroisoquinoline-3-carboxamide]	–	potent cytotoxic effects	–	no significant change	no significant change in body weight	no adverse clinical observations	2.9	4.6	8.8	4.2	2.7	6	4.6	3.2	3.4	degrade Mdm2	0.013	prolonged in vivo plasma exposure
